Reference: patent publication US20140011755A1, “Cardiac Glycosides for Treating Autoimmune Disease” (Department of Veterans Affairs, priority 2010, published 2014)
Entries after “also recorded” stand apart in the source; their conditions may differ.

Legend:
[1] = tested on: collagen-induced arthritis (CIA); format: in vivo, DBA1/J mice
[2] = tested on: splenocytes derived from mice with CIA; assay: CIA splenocyte proliferation (3H-thymidine incorporation); format: cell-based
Experimental: (§1) Activity was monitored by ^3H-thymidine incorporation as a read-out for proliferation. […] Cell type(s) in the splenocyte population responsive to therapeutic concentrations of cardiac glycoside were determined by identifying the population of cells that responded to a dose-dependent decrease in activity in the presence of stimulant, defined as ligand(s) binding to cognate receptor(s). Activity was analyzed by: ^3H-thymidine or BrdU incorporation to monitor proliferation or by ELISA to monitor cytokine production. Splenic T lymphocytes were isolated by negative selection (MACS, Miltinyi Biotec) and are stimulated with PMA, ConA or through the TCR with anti-CD3/anti-CD28 Dynabeads (Invitrogen) and collagen II (all non-TNFR receptors/pathways). […] Peritoneal and bone marrow-derived macrophages were isolated from CIA mice in the presence of M-CSF growth factor and were stimulated with TNF and CD40 ligand (CD40L). […] Splenic B lymphocytes were isolated by negative selection (MACS, Miltinyi Biotec) and were stimulated with BAFF (BLyS), CD40L or through the BCR with anti-IgM u-chain specific antibodies.

CD40 = biological target: T1, CD40 (Mus musculus, UniProt P27512); format: cell-based, mice; details: pre-treatment with 3.3 or 33 nM
T1 construct: Peritoneal and bone marrow-derived macrophages were isolated from CIA mice; endogenous in cells; host or cells: peritoneal and bone marrow-derived macrophages from CIA mice
T1 sequence (P27512 20-289): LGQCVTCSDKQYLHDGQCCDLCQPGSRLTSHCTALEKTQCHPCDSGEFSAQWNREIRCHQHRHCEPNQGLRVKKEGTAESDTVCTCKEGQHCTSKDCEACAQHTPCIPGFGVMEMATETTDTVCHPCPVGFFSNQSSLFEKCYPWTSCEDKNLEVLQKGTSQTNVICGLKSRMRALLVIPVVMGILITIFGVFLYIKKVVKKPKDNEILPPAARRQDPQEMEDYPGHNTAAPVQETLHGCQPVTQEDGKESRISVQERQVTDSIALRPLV
Experimental: as §1

T cell receptor = format: cell-based, mice; details: non-TNFR family member; therapeutic concentrations
Experimental: as §1

TNFR = format: cell-based, mice; details: pre-treatment with 3.3 or 33 nM
Experimental: as §1

[3] = daily i.p. from Mean Visual Score of 2, digitoxin 0.3 mg/kg, proscillaridin […], Mann-Whitney

Q: Which results are given for `C[C@H]1O[C@@H](O[C@H]2[C@@H](O)C[C@H](O[C@H]3[C@@H](O)C[C@H](O[C@H]4CC[C@@]5(C)[C@H](CC[C@@H]6[C@@H]5CC[C@]5(C)[C@@H](C7=CC(=O)OC7)CC[C@]65O)C4)O[C@@H]3C)O[C@@H]2C)C[C@H](O)[C@@H]1O` [Digitoxin, digitoxin]?
A: disease and inflammation (clinical score, paw thickness), dosing every three days i.p. ([1]; 0.9 mg/kg digitoxin or 0.6 mg/kg ouabain, i.p., days −3, 0, 3, 6, 9, 12 after boost): significantly less disease and inflammation; onset of collagen arthritis, dosing every three days sublingual ([1]; 0.9 mg/kg digitoxin or 0.6 mg/kg ouabain, sublingual, days −3, 0, 3, 6, 9, 12 after boost): significantly inhibited the onset of collagen arthritis; also recorded: effective in preventing; Mean Paw Thickness, treatment of established arthritis [1, 3]: statistically significant reductions; Mean Visual Score, treatment of established arthritis [1, 3]: statistically significant reductions; development of CIA (Mean Visual Arthritis Score, Mean Paw Thickness), prevention study ([1]; daily i.p. from the day prior to induction, digitoxin 0.3 mg/kg, ouabain 0.03 mg/kg, proscillaridin […]): prevented the development of CIA; average clinical arthritis scores compared to vehicle, prevention study ([1]; mouse, in vivo): significantly reduced; prevention and treatment of collagen-induced arthritis (CIA) ([1]; murine model for rheumatoid arthritis, summary statement): potently prevent and treat; proliferation of unstimulated or collagen II-stimulated splenocytes [2]: inhibits the proliferation; CD40L-mediated activation of macrophage through CD40 (CD40): inhibits; proliferation of T cells in response to stimulation through the T cell receptor (T cell receptor): did not alter proliferation; TNF-mediated activation of macrophage through TNFR (TNFR): inhibits
